From PubChem BioAssay (NCI)
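Five concentrations, 48 hours, 96-well plates. GI50 = concentration required for 50% inhibition of growth. TGI: concentration producing complete growth inhibition.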

Legend:
Test in all cases: inhibition of tumour cell growth, NCI panel, 48 h
SK-MEL-28 melanoma = test system: SK-MEL-28 melanoma
A498 renal = test system: A498 renal
SNB-75 CNS = test system: SNB-75 CNS
SK-OV-3 ovarian = test system: SK-OV-3 ovarian
UO-31 renal = test system: UO-31 renal
HOP-62 NSCLC = test system: HOP-62 NSCLC
MOLT-4 leukemia = test system: MOLT-4 leukemia
RXF 393 renal = test system: RXF 393 renal
LOX IMVI melanoma = test system: LOX IMVI melanoma
DU-145 prostate = test system: DU-145 prostate

Row | SMILES | TGI (SK-MEL-28 melanoma) [µM] | TGI (A498 renal) [µM] | TGI (SNB-75 CNS) [µM] | TGI (SK-OV-3 ovarian) [µM] | TGI (UO-31 renal) [µM] | TGI (HOP-62 NSCLC) [µM] | TGI (MOLT-4 leukemia) [µM] | TGI (RXF 393 renal) [µM] | TGI (LOX IMVI melanoma) [µM] | GI50 (SK-MEL-28 melanoma) [µM] | GI50 (A498 renal) [µM] | GI50 (RXF 393 renal) [µM] | GI50 (SNB-75 CNS) [µM] | GI50 (HOP-62 NSCLC) [µM] | GI50 (LOX IMVI melanoma) [µM] | GI50 (MOLT-4 leukemia) [µM] | GI50 (DU-145 prostate) [µM] | TGI (DU-145 prostate) [µM] | GI50 (SK-OV-3 ovarian) [µM] | GI50 (UO-31 renal) [µM]
1 | CCOc1cc2ccc3c4cc(OC)c(OC)cc4cnc3c2cc1OCC | > 100 | > 100 | > 100 | > 100 | > 100 | > 100 | > 100 |  |  |  |  |  |  |  |  |  |  |  |  | 
2 | COc1ccc(/C=N/N=C(\N)NO)c(Cl)c1O | > 100 |  |  | > 100 | 54.1 | 72.1 | > 100 | > 100 | > 100 |  |  |  |  |  |  |  |  |  |  | 
3 | CC(/C=C/C(=O)c1sc(-n2nc(-c3ccccc3)cc2-c2ccccc2)nc1C)=C\c1ccccc1 | > 100 | > 100 |  | > 100 | > 100 | > 100 | > 100 | > 100 | > 100 | > 100 | > 100 | > 100 | 28.4 | > 100 |  |  |  |  |  | 
4 | Cc1nnc(N=Nc2c(O)[nH]c3c(Cl)cc(Cl)cc23)n1N | > 100 | > 100 |  | > 100 | > 100 | > 100 | > 100 | > 100 | > 100 |  |  |  |  |  |  |  |  |  |  | 
5 | COc1c(C)c2c(c3c1c(=O)c1ccccc1n3C)C=CC(C)(C)O2 | 55.1 | 73.4 | 62.8 | 43.1 | 66 | 85.8 | 67.8 | > 100 | 32.9 |  |  |  |  |  |  |  |  |  |  | 
6 | COCc1c(CO)cnc(C)c1OC1OC(CO)C(O)C(O)C1O (stereo not drawn) | > 100 | > 100 | > 100 | > 100 | > 100 | > 100 | > 100 | > 100 | > 100 |  |  |  |  |  |  |  |  |  |  | 
7 | O=C(NCCO)c1cc2c(cn1)[nH]c1ccccc12 | > 100 | > 100 | > 100 | > 100 | > 100 | 40.1 | > 100 | > 100 | > 100 |  |  |  |  |  |  |  |  |  |  | 
8 | CC1=C(C(=O)Nc2ccccc2)C(c2ccc([N+](=O)[O-])cc2)C(C(=O)Nc2ccccc2)=C(C)N1 | 88.5 | 93 | 82.1 |  | > 100 | > 100 | > 100 | 46.2 | 30.5 |  |  |  |  |  |  |  |  |  |  | 
9 | c1ccc(N=c2snc3scc(-c4ccccc4)n23)cc1 | > 100 | > 100 | > 100 | > 100 | 81.4 | > 100 | 79.6 | > 100 | > 100 |  |  |  |  |  |  |  |  |  |  | 
10 | C=CCCCn1ccc2ccccc21 | > 100 | > 100 | > 100 | > 100 | > 100 | > 100 | > 100 | > 100 | > 100 |  |  |  |  |  |  |  |  |  |  | 
11 | O=C1OC(c2ccccc2)=N/C1=C\c1ccc2ccccc2c1 | > 100 | > 100 | > 100 | > 100 | > 100 |  | > 100 | > 100 | > 100 |  |  |  |  |  |  |  |  |  |  | 
12 | O=C(/C=C/c1ccc(O)c(O)c1)OC1C[C@@](O)(C(=O)O)C[C@@H](O)[C@H]1OC(=O)/C=C/c1ccc(O)c(O)c1 (stereo partly drawn) | > 100 | > 100 |  | > 100 | > 100 | > 100 | > 100 | > 100 | > 100 |  |  |  |  |  |  |  |  |  |  | 
13 | O=Cc1ccc(-c2ccc(-c3nc4ccccc4[nH]3)cc2)s1 | > 100 |  |  |  |  | 41.1 | > 100 | 57.8 | 64.6 | 47.7 |  | 22.7 |  | 16.1 | 21.8 | 32.4 | 25.8 | > 100 |  | 
14 | N#CC(/C(=N\NC(=O)c1ccncc1)C(=O)Nc1ccc([N+](=O)[O-])cc1[N+](=O)[O-])c1nc(-c2ccc(Br)cc2)cs1 (stereo not drawn) | > 100 | > 100 | > 100 | > 100 | > 100 | > 100 | > 100 |  | > 100 |  |  |  |  |  |  |  |  |  |  | 
15 | O=C(NCCc1ccccc1)C(c1ccccc1)(c1ccccc1)c1ccccc1 | > 100 |  | > 100 | > 100 | 43.4 | > 100 | > 100 |  |  | 20.1 |  |  | > 100 | 7.1 |  | > 100 | 3.38 | 44.2 | 26 | 6.32
16 | O=C(O)C1=C(C(=O)Nc2ccccc2)C2C=CC1C2 (stereo not drawn) | > 100 | > 100 | > 100 | > 100 | > 100 | > 100 | > 100 | > 100 | > 100 |  |  |  |  |  |  |  |  |  |  | 
17 | CN(C)c1ncnc2c1Cc1ccccc1C(=O)N2C | > 100 |  | > 100 | > 100 | > 100 | > 100 | > 100 | > 100 | > 100 |  |  |  |  |  |  |  |  |  |  | 
18 | CC1CN(c2ccc(Cl)cc2)CC(C)(C)OC(=O)O1 (stereo not drawn) | > 100 |  | > 100 | > 100 | > 100 | > 100 |  | > 100 | > 100 |  |  |  |  |  |  |  |  |  |  | 

Row | SMILES | TGI (SK-MEL-28 melanoma) [µM] | TGI (A498 renal) [µM] | TGI (SNB-75 CNS) [µM] | TGI (SK-OV-3 ovarian) [µM] | TGI (UO-31 renal) [µM] | TGI (HOP-62 NSCLC) [µM] | TGI (MOLT-4 leukemia) [µM] | TGI (RXF 393 renal) [µM] | TGI (LOX IMVI melanoma) [µM] | GI50 (SK-MEL-28 melanoma) [µM] | GI50 (A498 renal) [µM] | GI50 (RXF 393 renal) [µM] | GI50 (SNB-75 CNS) [µM] | GI50 (HOP-62 NSCLC) [µM] | GI50 (LOX IMVI melanoma) [µM] | GI50 (MOLT-4 leukemia) [µM] | GI50 (DU-145 prostate) [µM] | TGI (DU-145 prostate) [µM] | GI50 (SK-OV-3 ovarian) [µM] | GI50 (UO-31 renal) [µM]
19 | CC(=O)[O-].CC(=O)[O-].O=C(N/N=C/c1cc(Cl)cc(Cl)c1O)c1ccncc1.[Ni+2] | > 100 | > 100 | > 100 | > 100 | > 100 | > 100 | > 100 | > 100 | > 100 |  |  |  |  |  |  |  |  |  |  | 
20 | Cc1ccc(-n2c3nc(=O)n(C)c(=O)c-3nc3ccccc32)cc1 |  | > 100 | 39.7 | > 100 | > 100 | > 100 | 41.2 | > 100 | 43.7 |  |  |  |  |  |  |  |  |  |  | 
21 | CC(C)C1C(=O)NC(CO)Cc2c[nH]c3c(C(c4c[nH]c5ccccc45)C(O)CO)ccc(c23)N1C (stereo not drawn) | > 100 | > 100 | > 100 | > 100 | > 100 |  | > 100 | > 100 | > 100 |  |  |  |  |  |  |  |  |  |  | 
22 | Cc1ccc2[nH]c3c(C)c4c(c(C)c3c2c1)CN(C)C=C4 | 4.03 |  | 2.27 | 7.04 | 19.5 | 2.71 | > 40.6 | 12.9 | 17 |  |  |  |  |  |  |  |  |  |  | 
23 | CC(=O)NC(CCCCN(Cc1ccccc1)C(=O)NCCCl)C(=O)NCc1ccccc1 (stereo not drawn) | > 100 |  | > 100 |  | > 100 | > 100 | > 100 |  |  |  |  |  |  |  |  |  |  |  |  | 
24 | C#Cc1c(C)c(/C=C/C(C)=C/C=C/C(C)=C/C(=O)OC)n(C)c1C | > 100 |  | > 100 | > 100 | > 100 | > 100 | > 100 |  | > 100 |  |  |  |  |  |  |  |  |  |  | 
25 | CCOC(=O)C1(C#N)C(c2ccccc2)CC(O)(c2ccc([N+](=O)[O-])cc2)C(C(=O)c2ccc([N+](=O)[O-])cc2)C1c1ccccc1 (stereo not drawn) | > 100 |  | 96.5 | > 100 | > 100 | > 100 | > 100 | 42.6 | > 100 |  |  |  |  |  |  |  |  |  |  | 
26 | COc1ccc2c(c1O)C(=O)C(CCC(=O)O)CC2 (stereo not drawn) | > 100 | > 100 | > 100 | > 100 |  | > 100 | > 100 | > 100 | > 100 |  |  |  |  |  |  |  |  |  |  | 
27 | NC(=O)/C(=C\c1ccncc1)c1cccc2ccccc12 | > 100 |  | > 100 | > 100 | > 100 | > 100 | > 100 | > 100 | > 100 |  |  |  |  |  |  |  |  | > 100 |  | 
28 | CC(C)N(C(=O)C1(C)CC1)C(C)C | > 100 | > 100 | > 100 | > 100 | > 100 | > 100 | > 100 | > 100 |  |  |  |  |  |  |  |  |  |  |  | 
29 | C[N+](C)(C)CC(=O)N/N=C(\CCC(=O)NCCc1ccccc1)CC(=O)c1ccccc1 |  | > 100 |  | > 100 | > 100 | > 100 | > 100 |  | > 100 |  |  |  |  |  |  |  |  |  |  | 
30 | CCOC(=O)C[C@@H](C)[C@]1(C(=O)OC)CCCC1=O | > 100 | > 100 | > 100 | > 100 | > 100 | > 100 | > 100 | > 100 | > 61.5 |  |  |  |  |  |  |  |  |  |  | 
31 | COc1cc(Br)c(CC2(C#N)c3ccccc3C3C(N2C(=O)c2ccccc2)C3(Cl)Cl)cc1OC (stereo not drawn) | > 65.5 |  | > 65.5 | > 65.5 | > 65.5 |  |  | > 65.5 | > 65.5 |  |  |  |  |  |  |  |  |  |  | 
32 | O=C1Nc2cc(Cl)ccc2N=CC1NC(=O)C(c1ccccc1)c1ccccc1Cl (stereo not drawn) | > 100 | > 100 | > 100 | > 100 | > 100 | > 100 | > 100 | > 100 | > 100 |  |  |  |  |  |  |  |  |  |  | 
33 | CCCCCCCCCCCCCCCCOCC(CN(C)CCN(C)C)OCCCCCCCCCCCCCCCC (stereo not drawn) | > 100 | > 100 | > 100 | > 100 | > 100 | > 100 | > 100 | > 100 | > 100 |  |  |  |  |  |  |  |  |  |  | 
34 | Nc1nc(Cl)cc(NCCCCCNc2cc(Cl)nc(N)n2)n1 | > 100 |  | > 100 | > 100 | > 100 | > 100 | > 100 | > 100 | > 100 |  |  |  |  |  |  |  |  |  |  | 
35 | C=CCCOC(=O)CO[N+](=O)[O-] | > 100 |  | > 100 | > 100 | > 100 | > 100 | > 100 | > 100 | > 100 |  |  |  |  |  |  |  |  |  |  | 
36 | COc1cc(OC)c2ssc3c(OC)cc(OC)c4ssc1c2-c43 | > 100 | > 100 | > 100 | > 100 |  | > 100 | > 100 | > 100 | > 100 |  |  |  |  |  |  |  |  |  |  | 
